Test results reported in US11491167B2, “Combination product of Bcl-2 inhibitor and chemotherapeutic agent and use thereof in the prevention and/or treatment of diseases” (ASCENTAGE PHARMA (SUZHOU) CO., LTD., priority 2018, dated 2022).
Values joined by “and” are separate entries in the source; they are usually repeats but may differ in a detail not shown here. Equal values may be shown once. Read-outs that look alike come from different tables or passages of the source.

Columns and labels:
[1] = test system: human NCI-H146 (SCLC) mouse xenograft tumor model; settings: 5 mice per group; for RTV on day 21 after administration (mean ± standard error) / T/C (%) on day 21 after administration / RTV on day 35 after administration (mean ± standard error) / T/C (%) on day 35 after administration: Compound 6 100 mg/kg p.o. qd; for RTV on day 21 after administration (mean ± standard error) / T/C (%) on day 21 after administration: TPT 1 mg/kg p.o. d1-5/w then d1-3/w; for RTV on day 35 after administration (mean ± standard error) / T/C (%) on day 35 after administration: TPT 1 mg/kg p.o.; for CR (tumor complete regression), mice on day 21 after administration / PR (tumor partial regression), mice on day 21 after administration: Compound 6 100 mg/kg, TPT 1 mg/kg; for CR (tumor complete regression), mice on day 46 after administration / PR (tumor partial regression), mice on day 46 after administration / Tumor remission rate % on day 46 after administration: day 46, observation after discontinuation; for Tumor remission rate % on day 21 after administration / Tumor remission rate % on day 46 after administration: remission including CR, PR and SD
Description: A subcutaneous xenograft tumor model of human tumor immunodeficient mice was established by cell inoculation: tumor cells in logarithmic growth phase were collected, counted and resuspended in 1×PBS, and the cell suspension concentration was adjusted to 2.5-5×10^7/mL. Using a 1 mL syringe ([…]), the tumor cells were inoculated subcutaneously in the right side of immunodeficient mice, 5-10×106/0.2 mL/mouse (All animals were purchased from Beijing Vital River Laboratory Animal Technology Co., Ltd. SCXK (Beijing) 2012-0001). All animal experiments were strictly in accordance with the laboratory animal use and management practices of GenePharma Co., Ltd. and Ascentage Pharma Group Co., Ltd. The calculation of relevant parameters referred to the Chinese CFDA “Guidelines for Non-Clinical Research Techniques of Cytotoxic Antitumor Drugs”. The NCI-H146 cells used in the Institute were a gift from Professor Wang Shaomeng of the University of Michigan, USA.
Animal body weight and tumor size were measured twice a week during the experiment. The conditions and death of the animals were observed every day. Routine monitoring included the effects of tumor growth and treatment on normal animal behaviors, including activity, feeding and drinking situations, weight gain or loss, eyes, coat and other abnormalities in the experimental animals. The deaths and clinical symptoms observed during the experiment were recorded in the raw data. The entire operations of administration, measurement of mouse body weight and tumor volume were performed in a clean bench. Plasma and tumor tissues were collected, weighed and photographed after the end of the last administration according to the experimental protocol. Plasma and tumor samples were frozen and stored at −80° C.
Tumor volume (TV) was calculated as: TV=a×b2/2, in which a and b represented the length and width of the tumor as measured, respectively. The relative tumor volume (RTV) was calculated as: RTV=Vt/V1, in which V1 was the tumor volume at the time of grouping and administration, and Vt was the tumor volume measured on a day after administration. […] Change of body weight %=(measured body weight−body weight at the time of grouping)/body weight at the time of grouping×100%.
The synergistic analysis was performed by the following formula 6: synergy factor=((A/C)×(B/C))/(AB/C); A=RTV value of the group administered with A only; B=RTV value of the group administered with B only; C=RTV value of the vehicle control group; AB=RTV value of the group administered with A and B in combination (Clarke R. Issues in experimental design and endpoint analysis in the study of experimental cytotoxic agents in vivo in breast cancer and other models [J]. Breast Cancer Research & Treatment, 1997, 46(2-3): 255-278).
(1) The experimental method was as described in Section (2) of Example 1. In the experiment, the SCLC mouse xenograft tumor model derived from human NCI-H146 tumor cells was established (Gould S E et al. Translational value of mouse models in oncology drug development. Nature medicine. 2015 21, 431-439). When the tumor volume reached 100-200 mm3, randomization was performed according to tumor volume and mouse body weight, and two independent in vivo experiments were performed on the model to evaluate the anti-tumor effects of the combination of Compound 6 and the chemotherapeutic agent TPT (topotecan).
In this experiment, Compound 6 was administered at a dose of 100 mg/kg, p.o., qd; TPT was administered at a dose of 1 mg/kg, p.o., d1-5/w (i.e., a 2-day interval after 5 days of administration).

[2] = test system: NCI-H146 (small cell lung cancer (SCLC)); test: WST (CCK-8) anti-proliferation experiment, topotecan alone or combined with Compound 6; assay type: cell-based; settings: Homo sapiens, NCI-H146, 72 h, topotecan alone, read-out: IC50 for proliferation inhibition

SMILES | RTV on day 21 after administration (mean ± standard error) [1] | T/C (%) on day 21 after administration [1] [%] | RTV on day 35 after administration (mean ± standard error) [1] | T/C (%) on day 35 after administration [1] [%] | CR (tumor complete regression), mice on day 21 after administration [1] | PR (tumor partial regression), mice on day 21 after administration [1] | CR (tumor complete regression), mice on day 46 after administration [1] | PR (tumor partial regression), mice on day 46 after administration [1] | Tumor remission rate % on day 21 after administration [1] [%] | Tumor remission rate % on day 46 after administration [1] [%] | IC50 ([2]; NCI-H146 (SCLC), first experiment) [nM] | IC50 ([2]; another NCI-H146 (SCLC) experiment) [nM] | CR (tumor complete regression), mice on day 21 after administration ([1]; listed as TPT) | PR (tumor partial regression), mice on day 21 after administration ([1]; listed as TPT)
O=C(NS(=O)(=O)c1ccc(NC[C@H]2COCCO2)c([N+](=O)[O-])c1)c1ccc(N2CCN(CC3=C(c4ccc(Cl)cc4)CC4(CCC4)CC3)CC2)cc1Oc1cnc2[nH]ccc2c1 [Compound 6, (S)-N-((4-(((1,4-dioxan-2-yl)methyl)amino)-3-nitrophenyl)sulfonyl)-2-((1H-pyrrolo[2,3-b]pyridin-5-yl)oxy)-4-(4-((6-(4-chlorophenyl)spiro[3.5]non-6-en-7-yl)methyl)piperazin-1-yl)benzamide] | 2.51 ± 0.25 | 49 | 4.89 ± 0.39 | 52 | 0/5CR, 0/5PR, | 0/5CR, 0/5PR, | 0/5CR, 0/5PR, | 0/5CR, 0/5PR, | 0 | 0 | – | – | – | –
CC[C@@]1(O)C(=O)OCc2c1cc1n(c2=O)Cc2cc3c(CN(C)C)c(O)ccc3nc2-1 [topotecan] | 0.26 ± 0.12 | 5 | 0.77 ± 0.35 | 8 | – | – | 2/5 | 0/5 | 100 | 40 | 127 | 68 | 2 and 2/5 | 3 and 3/5
